In patent US6461624B2, “Skin-protective composition” (priority 1997, dated 2002):

Assays:
Experiment in all cases: Cell survival / percentage killing of a culture exposed to an agent (viable counts)
[1] = system: Ps. aeruginosa (lab isolate); assay type: cell-based, Pseudomonas aeruginosa; details: for Percentage of cells killed after 5 minutes exposure, Ps. aeruginosa: 0.5% lauric acid Na salt and/or 0.25% Parabens Na salt, sodium salt
Protocol: (§1) Determination of the Cell Counts
(§2) This was achieved by a number of different techniques depending on the circumstances involved. The techniques used were:
(§3) 1. Standard spread plate technique
(§4) This involves spreading a 100 μl aliquot of the desired dilution onto well dried agar plates using an alcohol flamed hockey stick.
(§5) In this method 1 ml samples of the diluted culture are placed into a sterile petri dish and then sterile cooled agar is added. The plate is then gently swirled to facilitate a […] mixing of the sample and the agar and allowed to solidify before being incubated at the temperature of choice in an inverted manner.
(§6) 3. Spot/drop plating method
(§7) This method involves the placing of a sample or the diluted sample onto a pre-dried agar plate but the sample is allowed to dry into the plate. Usually an aliquot of 5-20 μl is chosen to be thus plated. This method offers the advantages of being both economical in terms of agar plates (several drops can be readily accommodated on one agar plate) and also accurate.
(§8) All plates were incubated for 16 hours before being counted.
(§9) All dilutions were carried out in ¼×Ringers solution and all bacteria were grown up in Tryptic Soy Broth (TSB)
(§10) Determination of the cell survival/percentage killing of a culture with respect to exposure to a given agent.
(§11) In this method a sample of a fresh overnight culture was titred and a sample (usually 5 mls) was added to either broth (100mls) containing the test reagents or sterile water (100 mls) and test agents.
(§12) Immediately a sample (T0) was taken and plated using one of the techniques listed above. At regular intervals thereafter other samples were also removed, diluted and plated.
(§13) Error is 1 standard deviation of the mean.

[2] = system: Vancomycin-resistant Enterococci; assay type: cell-based, Enterococcus; details: for killing effect / mode of action on Vancomycin-resistant Enterococci (in words): methyl/propyl paraben Na salt 0.25% (w/v) (1:1) and/or lauric acid Na salt 0.50% (w/v), sodium salt
Protocol: as §1, §2, §3, §4, §5, §6, §7, §8, §9, §10, §11, §12, §13

MRSA strain S13 = assay type: cell-based, Methicillin Resistant Staphylococcus aureus; details: for Percentage of cells killed after 5 minutes exposure, MRSA (S13): 0.5% lauric acid Na salt and/or 0.25% Parabens Na salt, sodium salt
Protocol: as §1, §2, §3, §4, §5, §6, §7, §8, §9, §10, §11, §12, §13

E. coli (lab isolate) = assay type: cell-based, Escherichia coli; details: 0.5% lauric acid Na salt and/or 0.25% Parabens Na salt
Protocol: as §1, §2, §3, §4, §5, §6, §7, §8, §9
Determination of the cell survival/percentage killing of a culture with respect to exposure to a given agent. […]

[3] = methyl/propyl paraben Na salt 0.25% (w/v) (1:1) and/or lauric acid Na salt 0.50% (w/v)

Q: Which “Percentage of cells killed after 5 minutes exposure, Ps. aeruginosa” value ([1]; listed as lauric acid) does the source give for `CCCCCCCCCCCC(=O)[O-].[Na+]` [lauric acid Na salt, lauric acid sodium salt] here?
A: Its value is 13.

Q: And the “Percentage of cells killed after 5 minutes exposure, Ps. aeruginosa” value [1]?
A: The value was over 13.

Q: What about the “killing effect / mode of action on Ps. aeruginosa (in words)” value [1, 3] of the same molecule?
A: The value was “not effective”.

Q: And the “Percentage of cells killed after 5 minutes exposure, Vancomycin Resistant Enterococcus” value ([2]; 5 minutes, 0.5% lauric acid Na salt and/or 0.25% Parabens Na salt)?
A: The value was 100.

Q: What about the kill rate ([2]; after 5 mins) of the same molecule?
A: The kill rate was 100%.

Q: And the “survivors present when samples were plated” value ([2]; after 5 mins, T0 count 4.63×10^7 cfu/ml)?
A: The value was “no survivors”.

Q: And the “killing effect / mode of action on Vancomycin-resistant Enterococci (in words)” value ([2]; listed as Lauric acid Na salt)?
A: Its value is “bactericidal”.

Q: And the “killing effect / mode of action on Vancomycin-resistant Enterococci (in words)” value ([2]; listed as lauric acid)?
A: The value was “totally destroyed”.

Q: What about the “survivors present when samples were plated” value ([2]; strain FPL050, after 5 mins) of the same molecule?
A: The value was “no survivors”.

Q: What about the “reduction of a population of MRSA” value (MRSA strain S13; 0.50% lauric acid Na salt, isolate S13 in water held at 37° C., over 2 hrs) of the same molecule?
A: Its value is 99.8%.

Q: And the “killing of MRSA” value (MRSA strain S13; 0.50% lauric acid Na salt, repeated experiment, after 30 mins)?
A: The value was 99.6%.

Q: What about the “killing of MRSA” value (MRSA strain S13; 1.75% lauric acid Na salt, isolate S13, over 2 hrs) of the same molecule?
A: The value was under 99.0%.

Q: What about the “Percentage of cells killed after 5 minutes exposure, MRSA (S13)” value (MRSA strain S13; listed as lauric acid) of the same molecule?
A: The value was “more than 97”.

Q: And the “Percentage of cells killed after 5 minutes exposure, MRSA (S13)” value (MRSA strain S13)?
A: Its value is over 97.

Q: And the “killing effect / mode of action on MRSA isolate S13 (in words)” value (MRSA strain S13; [3])?
A: Its value is “does elicit killing effect”.

Q: What about the “Percentage of cells killed after 5 minutes exposure, E. coli” value (E. coli (lab isolate)) of the same molecule?
A: Its value is over 90.
